Measured values published in US20230293525A1, “METHODS AND COMPOSITIONS FOR THE TREATMENT OF VIRAL INFECTIONS” (priority 2020, published 2023).

Test system: minor spliceosome snRNAs including U11, U12, U6atac, and U4atac
Assay: qPCR of minor spliceosome snRNAs in HEK 293 cells treated with Tenovin 1
Type: cell-based
Conditions: 10 μM, incubated 24 hours, qPCR normalized to RN7SK, versus DMSO

CC(=O)Nc1ccc(NC(=S)NC(=O)c2ccc(C(C)(C)C)cc2)cc1 [Tenovin 1]
levels of minor spliceosome snRNAs U11, U12, U6atac and U4atac (qPCR): successfully downregulates
